The record followed here is ChEMBL document CHEMBL3593235, “Discovery of xanthine oxidase inhibitors and/or α-glucosidase inhibitors by carboxyalkyl derivatization based on the flavonoid of apigenin” (Bioorg Med Chem Lett, 2015).

Each structure is given as a SMILES string. pIC50: −log10 of the molar value. Calls of active or inactive are those of the source. The calls are words filed in the database; no cut-off is given here.

Assay [1] is described as follows: Inhibition of alpha glucosidase (unknown origin) using para-nitrophenyl-alpha-D-glucopyranoside as substrate preincubated for 15 mins followed by substrate addition measured after 10 mins by spectrophotometric analysis. Also on record: species or system Homo sapiens.
Assay [2] deals with Mus musculus. Nature of the assay: Hypouricemic activity in ICR mouse assessed as decrease in potassium oxonate-induced serum uric acid level at 10 mg/kg, ip after 1 hr by Uricase colorimetric method. It counts as functional, organism-based.
Assay [3] concerns the target Xanthine dehydrogenase/oxidase (Homo sapiens, UniProt P47989). Nature of the assay: Inhibition of xanthine oxidase (unknown origin) using xanthine as substrate preincubated for 15 mins followed by substrate addition measured after 30 mins by spectrophotometric analysis.
Assay [4] relates to Mus musculus. Nature of the assay: Hypoglycemic activity in ICR mouse assessed as decrease in elevated postprandial blood glucose level at 20 mg/kg, po administered 30 mins prior to sucrose challenge measured after 30 mins by OSTT. It counts as functional, organism-based.
Assay [5] relates to Mus musculus. Nature of the assay: Hypoglycemic activity in ICR mouse assessed as decrease in elevated postprandial blood glucose level at 20 mg/kg, po administered 30 mins prior to glucose challenge measured after 30 mins by OGTT. Type of assay: functional, organism-based.

Chain of Xanthine dehydrogenase/oxidase (P47989 whole entry): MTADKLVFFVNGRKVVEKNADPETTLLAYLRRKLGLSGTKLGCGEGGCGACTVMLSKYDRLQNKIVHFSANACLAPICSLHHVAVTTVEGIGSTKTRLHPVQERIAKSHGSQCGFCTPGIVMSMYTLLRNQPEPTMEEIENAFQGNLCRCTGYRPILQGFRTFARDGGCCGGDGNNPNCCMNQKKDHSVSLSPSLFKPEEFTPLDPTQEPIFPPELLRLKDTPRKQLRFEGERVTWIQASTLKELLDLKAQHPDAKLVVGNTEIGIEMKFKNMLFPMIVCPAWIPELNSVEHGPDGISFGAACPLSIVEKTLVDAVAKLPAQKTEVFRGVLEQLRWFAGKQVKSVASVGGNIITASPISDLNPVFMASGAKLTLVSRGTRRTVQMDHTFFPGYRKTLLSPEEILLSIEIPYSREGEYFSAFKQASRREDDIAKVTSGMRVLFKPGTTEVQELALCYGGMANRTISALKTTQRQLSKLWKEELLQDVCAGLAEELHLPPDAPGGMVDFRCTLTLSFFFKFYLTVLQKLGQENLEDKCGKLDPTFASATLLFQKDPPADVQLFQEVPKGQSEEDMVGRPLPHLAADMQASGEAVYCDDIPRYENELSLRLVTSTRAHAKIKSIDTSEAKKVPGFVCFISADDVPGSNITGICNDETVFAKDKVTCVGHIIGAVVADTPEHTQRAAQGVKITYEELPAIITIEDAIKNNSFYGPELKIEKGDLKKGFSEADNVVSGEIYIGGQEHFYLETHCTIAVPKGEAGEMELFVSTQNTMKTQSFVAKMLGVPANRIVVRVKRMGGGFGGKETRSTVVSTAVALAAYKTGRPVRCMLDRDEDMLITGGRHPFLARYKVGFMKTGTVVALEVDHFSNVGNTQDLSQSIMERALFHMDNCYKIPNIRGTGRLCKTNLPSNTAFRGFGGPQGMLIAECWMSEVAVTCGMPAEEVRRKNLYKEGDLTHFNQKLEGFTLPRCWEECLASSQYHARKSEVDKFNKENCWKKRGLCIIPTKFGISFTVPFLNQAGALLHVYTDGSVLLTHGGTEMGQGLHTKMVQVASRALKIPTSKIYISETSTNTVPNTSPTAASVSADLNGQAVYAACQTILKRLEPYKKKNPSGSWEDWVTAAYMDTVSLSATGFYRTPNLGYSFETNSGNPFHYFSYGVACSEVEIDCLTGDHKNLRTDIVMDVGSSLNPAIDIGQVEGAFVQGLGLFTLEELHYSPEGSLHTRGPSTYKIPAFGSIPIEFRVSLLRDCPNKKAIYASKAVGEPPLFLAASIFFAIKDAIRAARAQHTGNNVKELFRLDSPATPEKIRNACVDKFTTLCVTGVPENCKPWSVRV

The term pIC50 denotes the negative decadic logarithm of the IC50, by convention in mol/L. On to `O=C(O)COc1ccc(-c2cc(=O)c3c(O)cc(O)cc3o2)cc1`, for which, in assay [1], the pIC50 is less than 3.30.

In the case of `Oc1ncnc2[nH]ncc12`, the outcome in assay [2] was Active.

For the molecule `O=C(O)CCCCCOc1ccc(-c2cc(=O)c3c(O)cc(O)cc3o2)cc1`, the negative-log IC50 (pIC50) in assay [1] is less than 3.30; in assay [3], 6.49.

With `O=C(O)CCCOc1ccc(-c2cc(=O)c3c(O)cc(O)cc3o2)cc1`, the pIC50 is less than 3.30 in assay [1] and 6.22 in assay [3].

`O=C(O)CCCCCOc1cc(O)cc2oc(-c3ccc(O)cc3)cc(=O)c12` showed a pIC50 in assay [1] of 4.58. The result in assay [4] was Active. Besides, the outcome in assay [5] was inactive.

As for `O=C(O)CCCCOc1ccc(-c2cc(=O)c3c(O)cc(O)cc3o2)cc1`, the pIC50 in assay [1] was less than 3.30; in assay [3], 6.66.

As for `O=C(O)COc1cc(O)cc2oc(-c3ccc(O)cc3)cc(=O)c12`, the pIC50 in assay [1] is 3.95.

Turning to `O=C(O)CCCCOc1cc(O)c2c(=O)cc(-c3ccc(O)cc3)oc2c1`, the pIC50 in assay [1] was 4.47; in assay [3] it was less than 4.00.

Molecule `O=C(O)CCCCOc1cc(O)cc2oc(-c3ccc(O)cc3)cc(=O)c12` had a pIC50 in assay [1] of 4.41. The result in assay [4] and in assay [5] was inactive.

`O=C(O)COc1cc(O)c2c(=O)cc(-c3ccc(O)cc3)oc2c1` showed a negative logarithm of the IC50 (pIC50) in assay [1] of 4.21.

In assay [1], `O=C(O)CCCCCCCOc1cc(O)cc2oc(-c3ccc(O)cc3)cc(=O)c12` showed a pIC50 of less than 3.30.

As to `O=C(O)CCCCCCOc1cc(O)c2c(=O)cc(-c3ccc(O)cc3)oc2c1`, the negative-log IC50 (pIC50) is 4.04 in assay [1] and less than 4.00 in assay [3].

For `O=C(O)CCCCCCOc1ccc(-c2cc(=O)c3c(O)cc(O)cc3o2)cc1`, the negative logarithm of the IC50 (pIC50) in assay [1] is less than 3.30; in assay [3], 7.01. Besides, the outcome in assay [2] was Active.

The molecule `O=C(O)CCCOc1cc(O)cc2oc(-c3ccc(O)cc3)cc(=O)c12` gave a negative logarithm of the IC50 (pIC50) in assay [1] of 4.45.

Take `O=C(O)CCCOc1cc(O)c2c(=O)cc(-c3ccc(O)cc3)oc2c1`: the pIC50 in assay [1] is 4.35; in assay [3], less than 4.00.

For the molecule `O=C(O)CCCCCCOc1cc(O)cc2oc(-c3ccc(O)cc3)cc(=O)c12`, the negative logarithm of the IC50 (pIC50) in assay [1] was 4.29. In addition, the result in assay [4] was Active. Further, in assay [5], the outcome was inactive.

As for `O=C(O)CCCCCCCOc1cc(O)c2c(=O)cc(-c3ccc(O)cc3)oc2c1`, the results for the pIC50 in assay [1] and in assay [3] were 4.74 and less than 4.00, respectively. In addition, the result in assay [4] and in assay [5] was inactive.

In the case of `O=c1cc(-c2ccc(O)cc2)oc2cc(O)cc(O)c12` [APIGENIN], the pIC50 is 4.61 in assay [1] and 5.49 in assay [3]. The outcome in assay [4] and in assay [2] was inactive.

Take `O=C(O)CCCCCCCOc1ccc(-c2cc(=O)c3c(O)cc(O)cc3o2)cc1`: the pIC50 in assay [1] is less than 3.30; in assay [3], 6.60.

With `C[C@H]1O[C@H](O[C@H]2[C@H](O)[C@@H](O)[C@@H](O[C@H]3[C@H](O)[C@@H](O)C(O)O[C@@H]3CO)O[C@@H]2CO)[C@H](O)[C@@H](O)[C@@H]1N[C@H]1C=C(CO)[C@@H](O)[C@H](O)[C@H]1O` (some centres undefined) [ACARBOSE], the pIC50 in assay [1] is 3.65. The result in assay [4] was Active.

Consider `O=C(O)CCCCCOc1cc(O)c2c(=O)cc(-c3ccc(O)cc3)oc2c1`, for which the pIC50 in assay [1] is 3.99; in assay [3] it was less than 4.00.
